The source of these data is PubChem BioAssay AID540311 (Sanford-Burnham Center for Chemical Genomics, 2011).

Activity calls are given as the source filed them.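 Rule for the calls: active = mean EC50 at or below 20 µM; inactive = the rest.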

For this assay, the system named is CHO-XBP1 cells, IRE1-XBP1 luciferase reporter luminescence. In words: XBP1 luciferase reporter activation – CHO-XBP1 cells, luminescence, SAR follow-up (AID 540311).
In the case of `Cc1cc(-c2ccccc2)nc(Nc2nc(C)c3ccccc3n2)n1`, the EC50 was > 80 µM (inactive). On to `Cc1nc(Nc2nc(-c3ccccc3)cc(=O)[nH]2)nc2ccccc12`, for which the EC50 is 12.8 µM.

`Cc1ccnc(Nc2ncccn2)n1`: the EC50 is > 80 µM (inactive). As to `Cc1nc(Nc2nccc(-c3ccccc3)n2)nc2ccccc12`, the EC50 is > 80 µM (inactive). Take `Cc1nc(Nc2ncccn2)nc2ccccc12`: the EC50 is > 80 µM (inactive). As for `Cc1ccnc(Nc2nc(-c3ccccc3)cc(=O)[nH]2)n1`, the EC50 was > 80 µM (inactive). As for `Cc1cc(=O)[nH]c(Nc2nc(C)c3ccccc3n2)n1`, the EC50 was > 80 µM (inactive). Regarding `COc1cc(-c2ccccc2)nc(Nc2nc(C)c3ccccc3n2)n1`, the EC50 was > 80 µM (inactive).
